Earlier results in paper PMC8287861 (Frontiers in Microbiology, 2021).
Values after ≈ are worked out from the molar mass of the structure shown.

Key:
Set-up in all cases: method as in Lomovskaya et al. (2020b)
PAM4175 pUCP24 vector = conditions: ref Lomovskaya et al. (2020b)
PAM4820 CTX-M-25 = conditions: PAM4820, CTX-M-25, class A; ref Lomovskaya et al. (2020b)
PAM4800 GES-19 = conditions: PAM4800, GES-19, class A; ref Lomovskaya et al. (2020b)
PAM4842 PER-2 = conditions: PAM4842, PER-2, class A; ref Lomovskaya et al. (2020b)
PAM4907 PER-4 = conditions: PAM4907, PER-4, class A; ref Lomovskaya et al. (2020b)
PAM4874 SHV-12 = conditions: PAM4874, SHV-12, class A; ref Lomovskaya et al. (2020b)
PAM4908 VEB-1 = conditions: PAM4908, VEB-1, class A; ref Lomovskaya et al. (2020b)
PAM4938 VEB-9 = conditions: PAM4938, VEB-9, class A; ref Lomovskaya et al. (2020b)
PAM4135 KPC-2 = conditions: PAM4135, KPC-2, class A-CARB; ref Lomovskaya et al. (2020b)
PAM4864 SFC-1 = conditions: PAM4864, SFC-1, class A-CARB; ref Lomovskaya et al. (2020b)
PAM4744 SME-2 = conditions: PAM4744, SME-2, class A-CARB; ref Lomovskaya et al. (2020b)
PAM4676 BKC-1 = conditions: PAM4676, BKC-1, class A-CARB; ref Lomovskaya et al. (2020b)
PAM4825 MIR-1 = conditions: PAM4825, MIR-1, class C; ref Lomovskaya et al. (2020b)
PAM4884 ADC-181 = conditions: PAM4884, ADC-181, class C; ref Lomovskaya et al. (2020b)
PAM4792 OXA-2 = conditions: PAM4792, OXA-2, class D; ref Lomovskaya et al. (2020b)
PAM4217 OXA-48 = conditions: PAM4217, OXA-48, class D-CARB; ref Lomovskaya et al. (2020b)
PAM4875 OXA-23 = conditions: PAM4875, OXA-23, class D-CARB; ref Lomovskaya et al. (2020b)
PAM4876 OXA-72 = conditions: PAM4876, OXA-72, class D-CARB; ref Lomovskaya et al. (2020b)
PAM4877 OXA-58 = conditions: PAM4877, OXA-58, class D-CARB; ref Lomovskaya et al. (2020b)
PAM4795 VIM-1 = conditions: PAM4795, VIM-1, class B1; ref Lomovskaya et al. (2020b)
PAM4798 VIM-2 = conditions: PAM4798, VIM-2, class B1; ref Lomovskaya et al. (2020b)
PAM4196 IMP-13 = conditions: PAM4196, IMP-13, class B1; ref Lomovskaya et al. (2020b)
PAM4890 IMP-19 = conditions: PAM4890, IMP-19, class B1; ref Lomovskaya et al. (2020b)
PAM4879 CcrA1 = conditions: PAM4879, CcrA1, class B1; ref Lomovskaya et al. (2020b)
PAM4885 SPM-1 = conditions: PAM4885, SPM-1, class B1; ref Lomovskaya et al. (2020b)
PAM4880 L1 = conditions: PAM4880, L1, class B3; ref Lomovskaya et al. (2020b)

| SMILES | MIC (PAM4175 pUCP24 vector) [µg/mL] | MIC (PAM4820 CTX-M-25) [µg/mL] | MIC (PAM4800 GES-19) [µg/mL] | MIC (PAM4842 PER-2) [µg/mL] | MIC (PAM4907 PER-4) [µg/mL] | MIC (PAM4874 SHV-12) [µg/mL] | MIC (PAM4908 VEB-1) [µg/mL] | MIC (PAM4938 VEB-9) [µg/mL] | MIC (PAM4135 KPC-2) [µg/mL] | MIC (PAM4864 SFC-1) [µg/mL] | MIC (PAM4744 SME-2) [µg/mL] | MIC (PAM4676 BKC-1) [µg/mL] | MIC (PAM4825 MIR-1) [µg/mL] | MIC (PAM4884 ADC-181) [µg/mL] | MIC (PAM4792 OXA-2) [µg/mL] | MIC (PAM4217 OXA-48) [µg/mL] | MIC (PAM4875 OXA-23) [µg/mL] | MIC (PAM4876 OXA-72) [µg/mL] | MIC (PAM4877 OXA-58) [µg/mL] | MIC (PAM4795 VIM-1) [µg/mL] | further results |
| --- | --- | --- | --- | --- | --- | --- | --- | --- | --- | --- | --- | --- | --- | --- | --- | --- | --- | --- | --- | --- | --- |
| CC(C)(O/N=C(\C(=O)N[C@@H]1C(=O)N2C(C(=O)[O-])=C(C[n+]3ccccc3)CS[C@H]12)c1csc(N)n1)C(=O)O [Ceftazidime, ceftazidime] | 0.25 (≈ 0.457 µM) | 8 (≈ 14.6 µM) | >64 | >64 | >64 | >64 | >64 | 256 (≈ 468 µM) | 16 (≈ 29.3 µM) | 2 (≈ 3.66 µM) | 0.5 (≈ 0.915 µM) | 3 (≈ 5.49 µM) | 16 (≈ 29.3 µM) | 8 (≈ 14.6 µM) | 8 (≈ 14.6 µM) | 0.25 (≈ 0.457 µM) | 0.25 (≈ 0.457 µM) | 0.25 (≈ 0.457 µM) | 0.25 (≈ 0.457 µM) | 64 (≈ 117 µM) | MIC (PAM4798 VIM-2): 16 µg/mL (≈ 29.3 µM); MIC (PAM4196 IMP-13): 64 µg/mL (≈ 117 µM); MIC (PAM4890 IMP-19): >64 µg/mL; MIC (PAM4879 CcrA1): 4 µg/mL (≈ 7.32 µM); MIC (PAM4885 SPM-1): >64 µg/mL; MIC (PAM4880 L1): 64 µg/mL (≈ 117 µM) |
| CCN1CCN(C(=O)N[C@@H](C(=O)N[C@@H]2C(=O)N3[C@@H]2SC(C)(C)[C@@H]3C(=O)O)c2ccccc2)C(=O)C1=O [Piperacillin, piperacillin] | 0.125 (≈ 0.242 µM) | >64 | 8 (≈ 15.5 µM) | 1 (≈ 1.93 µM) | 0.5 (≈ 0.966 µM) | >64 | 8 (≈ 15.5 µM) | 16 (≈ 30.9 µM) | >64 | >64 | 8 (≈ 15.5 µM) | 32 (≈ 61.8 µM) | 8 (≈ 15.5 µM) | 1 (≈ 1.93 µM) | 64 (≈ 124 µM) | 16 (≈ 30.9 µM) | 16 (≈ 30.9 µM) | 16 (≈ 30.9 µM) | 4 (≈ 7.73 µM) | 16 (≈ 30.9 µM) | MIC (PAM4798 VIM-2): 16 µg/mL (≈ 30.9 µM); MIC (PAM4196 IMP-13): 0.5 µg/mL (≈ 0.966 µM); MIC (PAM4890 IMP-19): 0.25 µg/mL (≈ 0.483 µM); MIC (PAM4879 CcrA1): 0.25 µg/mL (≈ 0.483 µM); MIC (PAM4885 SPM-1): 32 µg/mL (≈ 61.8 µM); MIC (PAM4880 L1): 32 µg/mL (≈ 61.8 µM) |
